Data: patent US10525063B2, “Methods of reducing mammographic breast density and/or breast cancer risk” (HAVAH THERAPEUTICS PTY LTD., priority 2014, dated 2020)
Where two headings read alike, the source gives them in different places.

Tests used:
[1] = Serum anastrozole by liquid chromatography-tandem mass spectrometry; format: in vivo, human; conditions: for concentration at 3 month / concentration at 1 month: human, serum
Protocol: FAI is calculated from a formula where the serum measurement of total testosterone and sex hormone binding globulin are calculated by radio immunoassay. Aromatase inhibitor serum level is determined by liquid chromatography-tandem mass spectrometry.
All thirty having serum drawn at baseline and at 1 year for serum testosterone and sex hormone binding globulin so that free-androgen index could be calculated (FAI=the ratio of the total testosterone level divided by the sex hormone binding globulin level, and then multiplied by a 100 to give a percentage).

[2] = test system: mammographic breast density; conditions: background statement; cited from earlier work
[3] = cited from earlier work

CC(C)(C#N)c1cc(Cn2cncn2)cc(C(C)(C)C#N)c1 [anastrozole, 2,2′-[5-(1H-1,2,4-triazol-1-ylmethyl)-1,3-phenylene]bis(2-methylpropanenitrile)]
Serum anastrazole (ng/ml) End 1st year 3 month trough, median (range) ([1]; Example 2, 30 patients, s.c. testosterone and anastrozole at 4 months intervals): 32 (22-39) ng/ml
concentration at 3 month ([1]; female, sc, Example 2, 30 patients, s.c. testosterone and anastrozole at 4 months intervals, read-out: Serum anastrazole (ng/ml) 1st 3 month trough, median (range)): 27 ng/mL
concentration at 1 month ([1]; sc, Serum anastrozole, Example 1, Pellet 1 (testosterone 59 mg, anastrozole 2.75 mg, s.c.)): 0.038 µg/mL
concentration at 3 month ([1]; sc, Serum anastrozole, Example 1, Pellet 1 (testosterone 59 mg, anastrozole 2.75 mg, s.c.), 3 month): 28 ng/mL
concentration at 1 month ([1]; subcutaneous, Serum anastrozole, Example 1, Pellet 2 (testosterone 71 mg, anastrozole 2.75 mg)): 0.035 µg/mL
concentration at 3 month ([1]; subcutaneous, Serum anastrozole, Example 1, Pellet 2 (testosterone 71 mg, anastrozole 2.75 mg), 3 month): 25 ng/mL
concentration at 1 month ([1]; subcutaneous, Serum anastrozole, Example 1, Pellet 3 (testosterone 71 mg, anastrozole 2.75 mg)): 0.038 µg/mL
concentration at 3 month ([1]; subcutaneous, Serum anastrozole, Example 1, Pellet 3 (testosterone 71 mg, anastrozole 2.75 mg), 3 month): 28 ng/mL

CC/C(=C(\c1ccccc1)c1ccc(OCCN(C)C)cc1)c1ccccc1 [tamoxifen]
Effect on mammographic breast density [2]: has been shown to reduce mammographic breast density

CCCCCCCCCCC(=O)O[C@H]1CC[C@H]2[C@@H]3CCC4=CC(=O)CC[C@]4(C)[C@H]3CC[C@]12C [testosterone undecanoate]
Oral bioavailability ([3]; by-passes the liver via the lymphatic system): orally bioavailable

C[C@]12CC[C@H]3[C@@H](CCC4=CC(=O)CC[C@@]43C)[C@@H]1CC[C@@H]2O [testosterone]
Fraction broken down in the liver as it is absorbed from the gut ([3]; oral delivery): 80-90%
Fraction broken down in the intestines by aromatase and other metabolic pathways ([3]; oral): approximately 85%
